Measurements from patent US9134328B2, “Methods of using benzothiazole derivative compounds and compositions” (University of Pittsburgh—Of the Commonwealth System of …, priority 2003, dated 2015).

What was measured:
[1] = In vivo baboon PET imaging studies; details: for peak maximum radioactivity remaining in brain at later time points / early-to-late brain radioactivity concentration: baboon brain; for early-to-late brain radioactivity concentration: ratio of early to late radioactivity concentration; for rate of non-specific clearance (t1/2): baboon cerebellum (reference region devoid of specific binding); for higher concentration of radioactivity at 90 minutes in white matter regions than in gray matter regions / clearance half-time from baboon brain gray matter / brain penetration of radioactivity at early time points: control baboon; for higher concentration of radioactivity at 90 minutes in white matter regions than in gray matter regions: 90 minutes post-injection, white matter vs gray matter such as temporal cortex; for clearance half-time from baboon brain gray matter / brain penetration of radioactivity at early time points: intravenous injection; for clearance half-time from baboon brain gray matter: PET; for brain penetration of radioactivity at early time points: PET time-activity curve, all three brain regions
Experimental: PET imaging studies in adult baboons (Papio anubis) (weight 15-35 kg, ages 6-12 years) were performed with Compound B and Compound C in accordance with the Guide for the Care and Use of Laboratory Animals adopted by NIH and with the approval of the local Institutional Animal Care and Use Committee. Prior to PET imaging, the animals were initially sedated with ketamine (10-15 mg/kg, i.m.), given atropine (0.5 mg, i.m.) to control salivation and heart rate, and intubated. The baboons were subsequently maintained on a ventilator with isofluorane (0.5-1.25%) anesthesia and medical air. Pancuronium bromide was administered as necessary (intravenously, up to 0.06 mg/kg/hour, titrated to effect) to keep the animals immobilized during the study. A femoral artery catheter was inserted to monitor blood pressure and sample arterial blood, and an intravenous catheter was placed in an antecubital vein for radiotracer injection and to administer fluids as necessary throughout the course of the imaging study. Blood pressure, heart and respiratory rates, and expired CO2 and oxygen saturation levels were monitored continuously during the PET studies. The baseline rectal body temperature (˜37° C.) was maintained using a heating blanket (Gaymar, Orchard Park, N.Y.) and temperature regulator (Yellow Springs Instruments, Yellow Springs, Ohio). Prior to scanning, the baboon's head was fixed so that the image planes were acquired approximately parallel to the orbital-meatal line.
PET data were acquired using an ECAT HR+PET scanner (CTI PET Systems, Knoxyille, Tenn.) in 3D imaging mode (63 parallel slices; 15.2 cm axial field-of-view; 4.1 mm full-width half-maximum in-plane resolution). A Neuro-Insert (CTI PET Systems) was used to reduce the contribution of scattered photon events. After the baboons were positioned in the PET scanner, a windowed transmission scan (10-15 minutes) was obtained for attenuation correction of the PET emission data using rotating ^68Ge/^68Ga rods. Compound B and Compound C were administered intravenously over 20 seconds, and a dynamic series of PET scans were acquired over 90 minutes using 26 frames of increasing length (6×20 seconds; 4×30 seconds; 6×60 seconds; 4×5 minutes; 6×10 minutes). Approximately 185 MBq (˜5 mCi) of a high specific activity (>14.8 GBq/μmol) Compound B or Compound C was injected in a baboon. In other studies, 148-296 MBq (4-8 mCi) of a high specific activity (>18.5 GBq/μmol) reference PET radiotracer was injected, including either [^11C](+)-McN5652, [carbonyl-^11C]WAY100635, or [^18F]altanserin. The PET data were reconstructed using a Hanning filter (Nyquist cut-off) and corrected for decay, photon attenuation, and scatter.
An MRI scan was obtained for each baboon using a 1.5T GE Signa scanner (GE Medical Systems, Milwaukee, Wis.) equipped with a standard head coil. A volumetric spoiled gradient recalled (SPGR) MR sequence with parameters for high contrast among gray matter, white matter, and cerebral spinal fluid (CSF) was acquired in the coronal plane (TE=5, TR=24, flip angle=40°, slice thickness=1.5 mm, NEX=2, field of view 12 cm, voxel size=0.94×1.25×1.5 mm). Each individual baboon's MR image was coregistered to the PET data using the automated image registration (AIR) algorithm for cross-modality image alignment and reslicing. The initial 16 frames ([…] post-injection) of the dynamic PET images were summed together into images consisting of a single frame. Prior to co-registration, both the MR and summed PET images were edited using the ANALYZE software package (Mayo Clinic. Rochester, Minn.) to remove extracerebral tissues that could possibly confound the co-registration process. The edited MR images were then coregistered to the summed PET image and resliced to yield MR images in the same spatial orientation and resolution as the summed PET images.

[2] = In vivo mouse brain entry studies; design: species or system female Swiss-Webster mice
Experimental: This study reflects brain entry and clearance from normal brain tissue.
The mice were anesthetized and killed by cardiac excision following cardiac puncture to obtain arterial blood samples at 2 minutes or 30 minutes post-injection. The mouse brains were rapidly excised and divided into the cerebellum and the remaining whole brain (including brain stem) fractions. The brain samples were counted in a gamma well-counter, and the counts were decay-corrected to the time of injection relative to ^125I or ^18F standards prepared from the injection solution to determine the percent injected dose (% ID) in the samples. The brain samples were weighed to determine the percent injected dose per gram tissue (% ID/g), and this quantity was multiplied by the whole body weight (in kg) to determine the body-weight normalized radioactivity concentration [(% ID-kg)/g] of each tissue sample.

[3] = baboon cerebellar time-activity curves, reference PET radioligands

| Structure (SMILES) | non-specific binding clearance rate (in words) [1, 3] | peak maximum radioactivity remaining in brain at later time points [1] | early-to-late brain radioactivity concentration [1] | rate of non-specific clearance (t1/2) [1] [min] | higher concentration of radioactivity at 90 minutes in white matter regions than in gray matter regions [1] [%] | clearance half-time from baboon brain gray matter [1] | brain penetration of radioactivity at early time points [1] | also measured |
| --- | --- | --- | --- | --- | --- | --- | --- | --- |
| [11CH3]Sc1ccc([C@@H]2CN3CCC[C@@H]3c3ccccc32)cc1 [[^11C](+)-McN5652, reference compound] | relatively slow in vivo clearance |  |  |  |  |  |  |  |
| Oc1ccc2nc(-c3ccc(NCCC[18F])cc3)sc2c1 [Compound C, 2-[4-(3-^18F-fluoro-propylamino)-phenyl]benzothiazol-6-ol] |  | about 15% | about 6 | 10 | < 10 | about 10 minutes | about 0.22 % ID-kg/g | brain entry and clearance (in words) ([2]; mouse brain, 2 and 30 minutes post-injection): relatively high brain entry at early time points and fast clearance at later time points; Radioactivity Conc. at 2 min. ([2]; mouse brain, 2 minutes post-injection, lateral tail vein injection, wild type mice without amyloid deposits): 0.17 % ID-kg/g; Radioactivity Conc. at 30 min. ([2]; mouse brain, 30 minutes post-injection, lateral tail vein injection, wild type mice without amyloid deposits): 0.011 % ID-kg/g; 2 min./30 min. Ratio ([2]; ratio of 2 minutes-to-30 minutes (% ID-kg)/g values, mouse brain, measure of non-specific binding clearance rate): 16 |
| O=C(c1ccc([18F])cc1)C1CCN(CCn2c(=S)[nH]c3ccccc3c2=O)CC1 [[^18F]altanserin, reference compound] | relatively rapid non-specific binding clearance rates |  |  |  |  |  |  |  |
| CNc1ccc(-c2nc3ccc(O)cc3s2)cc1[18F] [Compound B, 2-(3-[^18F]-fluoro-4-methylamino-phenyl)-benzothiazol-6-ol] |  | about 25% | about 4 | 17 | ~30 | about 17 minutes | about 0.40 % ID-kg/g | 2 min./30 min. Ratio ([2]; mouse, in vivo): 10; Radioactivity Conc. at 2 min. ([2]; mouse, in vivo): 0.29 % ID-kg/g; Radioactivity Conc. at 30 min. ([2]; mouse, in vivo): 0.030 % ID-kg/g; brain entry and clearance (in words) ([2]; mouse, in vivo): relatively high brain entry at early time points and fast clearance at later time points |
| COc1ccccc1N1CCN(CCN(c2ccccn2)[11C](=O)C2CCCCC2)CC1 [[carbonyl-^11C]WAY100635, reference compound] |  |  |  |  |  |  |  | non-specific binding clearance rate (in words) ([1]; in vivo): relatively rapid non-specific binding clearance rates |
